The record followed here is patent publication US8217075B2, “2-amino-2-phenyl-alkanol derivatives, their preparation and pharmaceutical compositions containing them” (Oroxcell, priority 2008, dated 2012).

Experiment [1] deals with formalin-induced short- and long-phase pain. The settings on record: rat, dose of 39.3 mg/kg by subcutaneous route.
Experiment [2] relates to abdominal pain by irritation and distension of the colon. The note with it: rats, from 13.1 mg/kg and at doses of 26.2 mg/kg by subcutaneous route.

Consider `CC[C@@](COC(=O)c1cc(OC)c(OC)c(OC)c1)(c1ccccc1)N(C)C(=O)OCc1ccc(OC)cc1` [Example 4], for which, in experiment [1], the “short- and long-phase activity” value was “demonstrated short- and long-phase activity”. Besides, the “activity in abdominal pain test” value in experiment [2] is “demonstrated activity”.
